Laboratory results from ChEMBL document CHEMBL1201862, “PubChem BioAssay data set” (2004).
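Protocol summary: plate cells (96-well), add compound at 5 concentrations, incubate 48 h, interpolate endpoints linearly. GI50: concentration for 50% inhibition of growth.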 Calls of active or inactive are those of the source. Rule as the data show it: active = GI50 up to about 1.1 µM and inactive = higher.

Columns and labels:
Test in all cases: growth of human tumour cells (NCI), 48 h
[1] = test system: UACC-257
[2] = test system: NCI-H226
[3] = test system: DU-145
[4] = test system: U-251
[5] = test system: NCI/ADR-RES
[6] = test system: PC-3
[7] = test system: OVCAR-8
[8] = test system: NCI-H522
[9] = test system: SW-620
[10] = test system: IGROV-1
[11] = test system: LOX IMVI
[12] = test system: MDA-N
[13] = test system: HL-60
[14] = test system: T47D
[15] = test system: MDA-MB-435
[16] = test system: HOP-62
[17] = test system: A498
[18] = test system: SNB-19
[19] = test system: TK-10
[20] = test system: MCF7

Measured: GI50

Nc1nc2c(c(-c3ccccc3Cl)n1)COC/C2=C\c1ccccc1Cl
inactive: [1] 18.7 µM | [2] 18.8 µM | [3] 16.9 µM | [4] 16.8 µM | [5] 16.8 µM | [6] 14.3 µM | [7] 16 µM | [8] 14.6 µM | [9] 16.6 µM | [10] 15.8 µM | [11] 18.7 µM | [12] 10.9 µM | [13] 3.08 µM | [14] 17.1 µM | [15] 10.3 µM | [16] 18.1 µM | [17] 16.4 µM | [18] 15.7 µM | [19] 17.6 µM | [20] 14.5 µM

C/C(=N\N)C(CN1CCOCC1)C(c1ccccc1)c1c(O)c2ccccc2oc1=O (stereo not given)
inactive: [1] > 100 µM | [2] > 100 µM | [3] > 100 µM | [4] > 76.9 µM | [5] 65.9 µM | [6] > 100 µM | [7] > 90.6 µM | [8] > 52 µM | [9] > 100 µM | [10] > 100 µM | [11] 26.4 µM | [12] > 100 µM | [13] 30.4 µM | [14] 12.4 µM | [15] 53.7 µM | [16] > 91 µM | [17] 69.8 µM | [18] > 100 µM | [19] > 100 µM | [20] 56 µM

Cc1ccc(NC(=O)c2cc(S(=O)(=O)Nc3nc4cccnc4[nH]3)c(SSc3cc(Cl)c(C(=O)Nc4ccc(C)cc4)cc3S(=O)(=O)Nc3nc4cccnc4[nH]3)cc2Cl)cc1
inactive: [1] > 100 µM | [2] > 100 µM | [3] > 100 µM | [4] > 100 µM | [5] > 100 µM | [6] > 100 µM | [7] > 100 µM | [8] > 100 µM | [9] > 100 µM | [10] > 100 µM | [11] > 100 µM | [12] > 100 µM | [13] > 100 µM | [14] > 100 µM | [15] > 100 µM | [16] > 100 µM | [17] > 100 µM | [18] > 100 µM | [19] > 100 µM | [20] > 100 µM

COc1ccc(C2=C(N)c3ccccc3C2=O)cc1
inactive: [1] > 100 µM | [2] 45.6 µM | [3] > 100 µM | [4] 33.9 µM | [5] 42.4 µM | [6] > 100 µM | [7] 37.8 µM | [8] 69 µM | [9] > 100 µM | [10] 89.7 µM | [11] > 100 µM | [12] > 100 µM | [13] > 100 µM | [14] > 100 µM | [15] > 100 µM | [16] 31.2 µM | [17] 81.8 µM | [18] 25.7 µM | [19] 45.1 µM | [20] > 100 µM
